The subject of the assay is MDA-pc3 and MDA-B6 cells. Put plainly: Cell death assays (propidium iodide and 7-AAD staining). Format: cell-based, human. The conditions noted are these: MDA-pc3 vs MDA-B6, 25 nM, 72 h (FIGS. 5A, 5B). How it is done: FIG. 5. Inhibition of SRC induces cell death more efficiently in EPHB6-deficient cells. A. MDA-pc3, and MDA-B6 cells were cultured in glass-bottom plates in the presence of 25 nM KX2-391 or DMSO for 72 h and stained with 2.7 μg/mL propidium iodide (PI) in phenol red-free medium. Stained cells were imaged at 200× magnification using Zeiss LSM 700 confocal microscope and PI-stained cells were counted in at least 10 randomly captured frames. Counts of PI-positive cells were normalized on the total cell numbers in matching frames. […] B. MDA-pc3 and MDA-B6 cells were cultured in 6-well plates in the presence of 25 nM KX2-391 or a matching volume of DMSO for 72 h. Cells were collected and stained for 7-AAD for 15 minutes at room temperature. Cells were analyzed by flow cytometry and the FlowJo software. […] All experiments were performed at least three times. Scale bar, 100 μm. *, P<0.05, Student's t-test.
For propidium iodide (PI) staining, MDA-MB-231 and BT-20 cells were incubated in glass-bottom plates (MatTek, Ashland, Mass., USA) for 72 h and 96 h, respectively, with KX2-391 and matching volumes of DMSO. […] The amount of PI-stained cells was analyzed by microscopy using a Zeiss Observer Z1 at 200× magnification. […] PI-stained cells were counted in at least 10 randomly captured frames, normalized on the total number of cells in matching frames and compared between DMSO controls and treated cells. […]

One molecule from US20190203253A1, “METHODS OF IDENTIFYING AND TREATING CANCER PATIENTS WITH AN EPHB6 DEFICIENCY” (University of Saskatchewan, priority 2016, published 2019) can be followed below.

The structures appear in SMILES notation.

Consider `O=C(Cc1ccc(-c2ccc(OCCN3CCOCC3)cc2)cn1)NCc1ccccc1` [KX2-391], for which the “induction of cell death (Propidium Iodide or 7-AAD staining)” value is given as “more efficient in inducing cell death, when the EPHB6 receptor is not expressed”.
